Assay results as given in patent US12697316B2, “Combination therapy with acetyl-leucine and miglustat” (INTRABIO LTD., priority 2019, dated 2026).

Experiments:
Npc1^−/− mice = assay: Cerebellar immunohistochemistry (Purkinje cells, CD68 microglia) in Npc1−/− mice; format: in vivo, mouse; settings: for Purkinje cell survival in any cerebellar lobules / reduction of frequency of CD68 positive activated microglia: compared to Npc1−/− UT; for reduction of frequency of CD68 positive activated microglia: cerebellum
Description: (§1) ADLL and enantiomers (ADLL: Molekula #73891210, ALL: Sigma Aldrich #441511, ADL: Sigma #A0876) were administered as dry admix in powdered mouse diet (PicoLab Rodent Diet 20/5053, LabDiet) at a dose of 0.1 g/kg/day for in vivo studies. Treatment groups for in vivo study consisted of at least 5 mice per group. In vitro studies were conducted with each compound dissolved in PBS to generate a 50 mM stock solution and diluted to a 1 mM working concentration in media (DMEM High Glucose-Gibco #10566016).
Biochemical and immunohistochemical analyses. Mice were saline perfused under terminal anaesthesia. Tissues for biochemical analysis were snap-frozen on ice-cold isopentane. For immunofluorescent staining, tissues were perfused with 4% PFA followed by PBS and kept in 4% PFA for 24h and stored in PBS containing 20% sucrose longer term. Brains were cut parasagitally (20 micron sections) and stored in 30% ethylene glycol, 30% glycerol 0.1 M sodium phosphate buffer (pH 7.4) at −20° C. Biochemical analysis was performed on water-homogenised tissues (50 mg/ml) and protein content was determined using a BCA protein assay (Thermo Fisher #23227) according to the manufacturer's instructions.
Immunohistochemistry: Free-floating brain sections in glycerol/ethylene were rinsed 3 times with PBS and blocked with 2% goat serum in 0.3% PBS Triton at room temperature. Sections were stained with primary antibodies; rabbit Calbindin (1:2000) and rat CD68 (1:500) in 2% goat serum in 0.3% PBS for 16 hours at 4° C., followed by washing with 0.3% PBS Triton, then 3 times with PBS. Secondary antibody staining (Alexa Fluor 597 Goat anti rabbit Far Red, Alexa Fluor 488 Goat anti rat) was conducted at room temperature for 2 hours. Samples were washed once with 0.3% PBS Triton, 3 times with PBS and manually mounted on slides. Slides left on the bench overnight to dry the sections followed by application of ProLong Gold (Invitrogen, #P36930).
Image Acquisition and Quantification: Brain sections and CHO cells imaging was performed with a Leica-SP8 confocal microscope in tile imaging mode. Western blot data acquisition was conducted with LiCOR Odyssey Infrared Imaging system model no 9120. Mean fluorescence values, cerebellum diameters and areas, cell quantifications were calculated with Fuji Version 1.0 software.

[1] = tested on: Npc1^−/− Chinese Hamster Ovary (CHO) cells; assay: Sphingosine, total GSL and cholesterol content in NPC1 null CHO cells; format: cell-based; settings: 1 mM, 72 hours
Description: Wild type and NPC1 null Chinese Hamster Ovary (CHO) cells were kindly provided by Chris Wassif (NIH).
as §1
Sphingoid Base Measurements: Sphingoid bases (sphingosine and sphinganine) were extracted from 100 uL tissue homogenates in 500 uL of chloroform:methanol (1:2v/v) followed by sonication for 10 minutes at room temperature. Subsequently, 1 M 500-uL sodium chloride, 500 uL chloroform, and 3 M 100 uL sodium hydroxide were added to the samples, and vortexed every five minutes for 15 minutes at room temperature. Homogenates were centrifuged (13,000 g for 10 minutes) and the lower organic phase retained. Sphingoid bases were purified from the samples by pre-equilibrating SPA-NH2 columns with 2×1 mL chloroform followed by sample elution with 3×300 ul acetone. The samples were dried under nitrogen. Lipids were resuspended in 50 uL pre-warmed ethanol (37° C.) and 50 uL OPA labelling solution (1 mg OPA/20 uL Ethanol/1 uL 2-mercaptoethanol; dilution 1:2000 in 3% boric acid pH 10.5) was added. Samples were kept at room temperature in the dark for 20 minutes and vortexed every 10 minutes. Samples were buffered with 100 uL methanol: 5 mM Tris pH 7 (9:1) and centrifuged at 5,000 g for 2 minutes. Supernatants (150 uL) were loaded onto a reverse phase HPLC. Chromatography was carried out using a mobile phase of 85% acetonitrile/15% H2O at a flow rate of 1.0 ml/min. The orthophthaldehyde-labelled derivatives were monitored at an excitation wavelength of 340 nm and an emission wavelength of 450 nm. Quantification of trace peak area was carried out using EZChrom Elite software v3.2.1.
Glycosphingolipid measurements: Glycosphingolipids were extracted and measured by NP-HPLC according to published methods. Tissue homogenates in chloroform/methanol (C:M) (1:2 v/v) overnight at 4° C. The mixture was centrifuged (3000 rpm/10 min) and 1 mL chloroform and 1 mL PBS were added to the supernatant and centrifuged (3000 rpm/10 min). The lower phase was dried under N2, resuspended in 50 uL C:M 1:3 v/v and combined with the upper phase. Subsequently, GSLs were recovered using C18 Isolute columns (100 mg) (Biotage) pre-equilibrated with 4×1 mL MeOH and 2×1 mL H2O. Samples were washed 3×1 mL H2O and eluted with 1 mL C:M 98:2, 2×1 mL C:M 1:3, 1 mL MeOH. The column eluate was dried under N2, resuspended in 100 uL C:M 2:1, dried again under N2 and resuspended in ceramide glycanase (CGase) buffer (50 mM sodium acetate pH 5.5, 1 mg/mL sodium taurodeoxycholate). 50 mU CGase was added, and samples incubated at 37° C. overnight. Released oligosaccharides were anthranilic acid (2-AA) labelled and purified by mixing with 1 mL Acetonitrile: H2O 97:3 and added to Discovery DPA-6S columns (SUPELCO, # 52625-U) pre-equilibrated with 1 mL acetonitrile, 2×1 mL H2O, and 2×1 mL acetonitrile. Columns were washed with 2×1 mL Acetonitrile: H2O 95:5 v/v, and eluted in 2×0.75 mL H2O. Samples were loaded 30:70 H2O: MeCN (v/v) for normal phase HPLC. Solvent A was acetonitrile, solvent B was H2O, and solvent C was 100 mM […] (pH 3.85) in H2O. Separation was carried out at 30° C. using Waters Alliance 2695 separation module, excitation 360, emission 425 using Waters 2475 Fluorescence detector.
Cholesterol measurements: Cholesterol was measured with the Amplex Red kit (Molecular Probes) according to the manufacturer's instructions. Briefly, cell and tissue homogenates in 100 uL mQ water were Folch extracted and dried down under nitrogen. […]

[2] = 59 days of age, relative to untreated Npc1−/− littermates

SMILES | Purkinje cell survival in any cerebellar lobules (Npc1^−/− mice; 59 days of age) | reduction of frequency of CD68 positive activated microglia (Npc1^−/− mice; 59 days of age) | reduction of cholesterol content [1] | reduction of sphingosine levels [1] | reduction of total GSL levels [1] | more Purkinje cells in lobule III (Npc1^−/− mice; [2]) | more Purkinje cells in lobules I and II (Npc1^−/− mice; [2]) | long term neuroprotective effects (Npc1^−/− mice; Npc1−/− mice)
CC(=O)N[C@@H](CC(C)C)C(=O)O [ALL, N-acetyl-L-leucine] | did not significantly improve | 20% | 13% | 29% | 25% |  |  | 
CC(=O)NC(CC(C)C)C(=O)O (racemic) [ADLL, N-acetyl-DL-leucine] |  | did not have a significant impact | 18% | 22% | 26% | 402% | 133% | 
CC(=O)N[C@H](CC(C)C)C(=O)O [ADL, N-acetyl-D-leucine] | did not significantly improve | did not have a significant impact | 14% | 14% | 22% |  |  | did not mediate any long term, neuroprotective effects
